Laboratory results taken from the NIST ThermoML archive (doi:10.1021/je020206a).
Numbers after ± are expanded uncertainties.

Experiment: wn = mass fraction of the nth substance listed
Conditions: 101.3 kPa, Liquid, w1 = 0.3

Row | Compound | mass density (293.15 K) [kg/m3] | viscosity (293.15 K) [mPa·s] | mass density (298.15 K) [kg/m3] | viscosity (298.15 K) [mPa·s] | mass density (303.15 K) [kg/m3] | viscosity (303.15 K) [mPa·s] | mass density (308.15 K) [kg/m3] | viscosity (308.15 K) [mPa·s] | mass density (313.15 K) [kg/m3] | viscosity (313.15 K) [mPa·s] | mass density (318.15 K) [kg/m3] | viscosity (318.15 K) [mPa·s] | mass density (323.15 K) [kg/m3] | viscosity (323.15 K) [mPa·s]
1 | CC(C)(N)CO [2-amino-2-methylpropan-1-ol] + O | 999.85 ± 1.1 | 4.89 ± 0.43 | 997.41 ± 1.1 | 3.79 ± 0.34 | 994.62 ± 1.1 | 3.21 ± 0.29 | 991.22 ± 1.1 | 2.8 ± 0.25 | 988.72 ± 1.2 | 2.24 ± 0.21 | 986.24 ± 1.2 | 1.92 ± 0.18 | 983.13 ± 1.3 | 1.58 ± 0.15
2 | NCCO [2-aminoethan-1-ol] + O | 1015.3 ± 1.1 | 2.63 ± 0.24 | 1012.1 ± 1.1 | 2.2 ± 0.2 | 1009.2 ± 1.1 | 2.1 ± 0.19 | 1004.9 ± 1.1 | 1.85 ± 0.17 | 1003.2 ± 1.2 | 1.6 ± 0.15 | 1001 ± 1.2 | 1.5 ± 0.14 | 997.76 ± 1.3 | 1.29 ± 0.12
3 | CN(CCO)CCO [N-methyldiethanolamine] + O | 1032.2 ± 1.1 | 3.46 ± 0.31 | 1027.5 ± 1.1 | 3.02 ± 0.27 | 1023.1 ± 1.1 | 2.68 ± 0.24 | 1019.9 ± 1.2 | 2.27 ± 0.21 | 1018.2 ± 1.2 | 1.92 ± 0.18 | 1014.2 ± 1.3 | 1.72 ± 0.16 | 1011.2 ± 1.3 | 1.49 ± 0.14
4 | OCCNCCO [diethanolamine] + O | 1042.7 ± 1.1 | 4.22 ± 0.37 | 1037.4 ± 1.1 | 3.26 ± 0.3 | 1033.2 ± 1.1 | 2.57 ± 0.23 | 1029.1 ± 1.2 | 2.51 ± 0.23 | 1026.4 ± 1.2 | 1.97 ± 0.18 | 1022.7 ± 1.3 | 1.72 ± 0.16 | 1019.3 ± 1.3 | 1.41 ± 0.13
